Source: PMC7497403, “Development of Potent PfCLK3 Inhibitors Based on TCMDC-135051 as a New Class of Antimalarials” (Journal of Medicinal Chemistry, 2020)
In brackets after ≈: the same amount, converted by molar mass.

Tests used:
[1] = Microsomal stability; assay type: in vitro ADME; details: mouse liver microsomes; 1 μM compound
Method: Compounds were incubated at 37 °C at a concentration of 1 μM with CD1 mouse liver microsomes (GIBCO, Thermo Fisher Scientific) in a suspension of 50 mM potassium phosphate buffer (pH 7.4) with a final protein concentration of 0.5 mg/mL. The reaction was started by the addition of excess NADPH and then quenched at several time points starting from time 0, then at 3, 6, 9, 15, and 30 min addition of acetonitrile to an aliquot of the sample. An internal standard was added to each sample before centrifugation to remove any precipitates before monitoring loss of parent compound by HPLC analysis using Shimadzu LC-20A (Shimadzu, UK). Prism (Graphpad, USA) was used to fit an exponential decay for substrate depletion and subsequently rate constant (k) from the peak area of the parent compound to the internal standard at each time point.

[2] = Aqueous solubility; assay type: physicochemical; details: aqueous medium (not further specified); read-out: Aq. Solubility
[3] = test system: P. falciparum clinical field isolates from The Gambia; assay: Parasite reduction rate (PRR) assay with clinical isolates; assay type: cell-based
[4] = target: ABL (Homo sapiens, UniProt P00519); assay: Kinase screen; assay type: biochemical
From the text: (§1) With verapamil used as a positive control.
(§2) V. Distribution coefficient (LogD7.4)

[5] = target: ASK1 (Homo sapiens, UniProt Q99683); assay: Kinase screen; assay type: biochemical
From the text: as §1, §2

[6] = target: CK2 (Homo sapiens, UniProt P68400); assay: Kinase screen; assay type: biochemical
Sequence of CK2 (P68400 whole entry): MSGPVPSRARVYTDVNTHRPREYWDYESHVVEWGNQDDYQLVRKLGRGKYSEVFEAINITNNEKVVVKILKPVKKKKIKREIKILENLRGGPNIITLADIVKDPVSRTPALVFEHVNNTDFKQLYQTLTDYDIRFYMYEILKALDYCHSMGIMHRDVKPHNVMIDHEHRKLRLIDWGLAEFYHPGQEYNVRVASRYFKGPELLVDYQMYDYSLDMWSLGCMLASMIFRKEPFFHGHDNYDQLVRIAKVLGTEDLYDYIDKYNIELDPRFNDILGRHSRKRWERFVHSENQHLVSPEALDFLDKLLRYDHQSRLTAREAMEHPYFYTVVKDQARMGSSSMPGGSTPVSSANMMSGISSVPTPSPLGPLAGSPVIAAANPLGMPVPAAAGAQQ
From the text: as §1, §2

[7] = target: CSK (Homo sapiens, UniProt P41240); assay: Kinase screen; assay type: biochemical
From the text: as §1, §2

[8] = target: EIF2AK3 (Homo sapiens, UniProt Q9NZJ5); assay: Kinase screen; assay type: biochemical
Sequence of EIF2AK3 (Q9NZJ5 30-1116): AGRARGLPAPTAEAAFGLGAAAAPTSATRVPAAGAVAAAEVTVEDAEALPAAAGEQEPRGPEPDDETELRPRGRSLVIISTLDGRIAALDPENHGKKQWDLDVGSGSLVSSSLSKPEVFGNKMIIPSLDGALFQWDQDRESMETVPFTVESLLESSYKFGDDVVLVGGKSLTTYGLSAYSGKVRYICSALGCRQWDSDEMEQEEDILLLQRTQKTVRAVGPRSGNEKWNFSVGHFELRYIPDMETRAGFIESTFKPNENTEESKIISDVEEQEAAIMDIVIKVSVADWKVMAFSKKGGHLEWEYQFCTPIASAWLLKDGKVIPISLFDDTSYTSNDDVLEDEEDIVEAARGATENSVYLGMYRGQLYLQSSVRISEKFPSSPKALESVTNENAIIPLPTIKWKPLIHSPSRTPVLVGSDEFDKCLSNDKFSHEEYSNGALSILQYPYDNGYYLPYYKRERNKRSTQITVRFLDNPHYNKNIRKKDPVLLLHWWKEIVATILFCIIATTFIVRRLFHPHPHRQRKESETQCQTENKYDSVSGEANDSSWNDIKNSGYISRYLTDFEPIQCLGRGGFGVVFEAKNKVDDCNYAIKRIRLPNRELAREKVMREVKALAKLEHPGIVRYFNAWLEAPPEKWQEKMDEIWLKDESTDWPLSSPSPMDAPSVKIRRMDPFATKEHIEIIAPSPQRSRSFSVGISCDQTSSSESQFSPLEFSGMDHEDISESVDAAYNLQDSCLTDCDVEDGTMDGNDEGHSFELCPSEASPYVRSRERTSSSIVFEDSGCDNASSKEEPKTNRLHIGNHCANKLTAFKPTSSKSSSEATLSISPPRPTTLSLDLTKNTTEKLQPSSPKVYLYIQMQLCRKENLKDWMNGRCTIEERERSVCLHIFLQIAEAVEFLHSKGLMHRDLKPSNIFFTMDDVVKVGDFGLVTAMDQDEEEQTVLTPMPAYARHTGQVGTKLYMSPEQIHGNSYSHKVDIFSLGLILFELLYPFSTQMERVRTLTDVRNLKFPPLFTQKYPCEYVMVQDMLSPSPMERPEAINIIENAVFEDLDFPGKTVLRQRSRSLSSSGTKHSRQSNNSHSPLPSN
From the text: as §1, §2

[9] = target: EPH-B2 (Homo sapiens, UniProt P29323); assay: Kinase screen; assay type: biochemical
From the text: as §1, §2

[10] = target: EPH-B3 (Homo sapiens, UniProt P54753); assay: Kinase screen; assay type: biochemical
From the text: as §1, §2

[11] = target: EPH-B4 (Homo sapiens, UniProt P54760); assay: Kinase screen; assay type: biochemical
From the text: as §1, §2

[12] = target: ERK1 (Homo sapiens, UniProt P27361); assay: Kinase screen; assay type: biochemical
From the text: as §1, §2

[13] = target: ERK5 (Homo sapiens, UniProt Q13164); assay: Kinase screen; assay type: biochemical
From the text: as §1, §2

[14] = target: IKKb (Homo sapiens, UniProt O14920); assay: Kinase screen; assay type: biochemical
From the text: as §1, §2

[15] = target: IKKe (Homo sapiens, UniProt Q14164); assay: Kinase screen; assay type: biochemical
From the text: as §1, §2

[16] = target: JNK2 (Homo sapiens, UniProt P45984); assay: Kinase screen; assay type: biochemical
From the text: as §1, §2

[17] = target: MAPKAP-K2 (Homo sapiens, UniProt P49137); assay: Kinase screen; assay type: biochemical
Sequence of MAPKAP-K2 (P49137 whole entry): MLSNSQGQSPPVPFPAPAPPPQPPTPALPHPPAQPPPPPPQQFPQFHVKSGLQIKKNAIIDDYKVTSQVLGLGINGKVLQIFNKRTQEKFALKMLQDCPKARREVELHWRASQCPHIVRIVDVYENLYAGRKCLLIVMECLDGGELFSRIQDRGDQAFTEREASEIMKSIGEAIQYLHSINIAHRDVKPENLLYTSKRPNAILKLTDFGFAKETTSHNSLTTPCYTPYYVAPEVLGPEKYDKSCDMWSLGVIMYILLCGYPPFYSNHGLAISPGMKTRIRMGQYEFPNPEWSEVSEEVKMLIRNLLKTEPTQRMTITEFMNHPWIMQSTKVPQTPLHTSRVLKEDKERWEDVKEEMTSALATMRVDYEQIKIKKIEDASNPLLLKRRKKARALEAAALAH
From the text: as §1, §2

[18] = target: MARK3 (Homo sapiens, UniProt P27448); assay: Kinase screen; assay type: biochemical
From the text: as §1, §2

[19] = target: MARK4 (Homo sapiens, UniProt Q96L34); assay: Kinase screen; assay type: biochemical
From the text: as §1, §2

[20] = target: MINK1 (Homo sapiens, UniProt Q8N4C8); assay: Kinase screen; assay type: biochemical
From the text: as §1, §2

[21] = target: MKK2 (Homo sapiens, UniProt P36507); assay: Kinase screen; assay type: biochemical
From the text: as §1, §2

[22] = target: MKK6 (Homo sapiens, UniProt P52564); assay: Kinase screen; assay type: biochemical
Sequence of MKK6 (P52564 whole entry): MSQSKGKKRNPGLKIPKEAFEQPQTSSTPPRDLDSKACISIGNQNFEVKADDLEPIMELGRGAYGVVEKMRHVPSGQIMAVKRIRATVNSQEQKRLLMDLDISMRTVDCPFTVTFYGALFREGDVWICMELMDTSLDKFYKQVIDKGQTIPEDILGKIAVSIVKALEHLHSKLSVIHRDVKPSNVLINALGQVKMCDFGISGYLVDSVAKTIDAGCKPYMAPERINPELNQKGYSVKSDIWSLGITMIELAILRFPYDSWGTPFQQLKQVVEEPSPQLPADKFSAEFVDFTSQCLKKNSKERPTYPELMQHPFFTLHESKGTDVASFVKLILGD
From the text: as §1, §2

[23] = target: MNK2 (Homo sapiens, UniProt Q9HBH9); assay: Kinase screen; assay type: biochemical
From the text: as §1, §2

[24] = target: MST2 (Homo sapiens, UniProt Q13188); assay: Kinase screen; assay type: biochemical
From the text: as §1, §2

[25] = target: NEK2a (Homo sapiens, UniProt P51955); assay: Kinase screen; assay type: biochemical
From the text: as §1, §2

[26] = target: NEK6 (Homo sapiens, UniProt Q9HC98); assay: Kinase screen; assay type: biochemical
From the text: as §1, §2

[27] = target: NUAK1 (Homo sapiens, UniProt O60285); assay: Kinase screen; assay type: biochemical
From the text: as §1, §2

[28] = target: PIM1 (Homo sapiens, UniProt P11309); assay: Kinase screen; assay type: biochemical
Sequence of PIM1 (P11309 whole entry): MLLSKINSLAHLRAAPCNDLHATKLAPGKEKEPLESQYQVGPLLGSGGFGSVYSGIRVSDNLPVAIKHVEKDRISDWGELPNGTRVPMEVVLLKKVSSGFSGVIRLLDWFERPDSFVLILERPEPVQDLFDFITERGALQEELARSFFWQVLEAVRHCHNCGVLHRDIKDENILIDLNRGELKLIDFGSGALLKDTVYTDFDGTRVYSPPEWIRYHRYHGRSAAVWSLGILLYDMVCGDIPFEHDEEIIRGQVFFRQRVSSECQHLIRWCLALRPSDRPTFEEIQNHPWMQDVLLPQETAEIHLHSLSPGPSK
From the text: as §1, §2

[29] = target: PIM2 (Homo sapiens, UniProt Q9P1W9); assay: Kinase screen; assay type: biochemical
From the text: as §1, §2

[30] = target: PIM3 (Homo sapiens, UniProt Q86V86); assay: Kinase screen; assay type: biochemical
From the text: as §1, §2

[31] = target: PKD1 (Homo sapiens, UniProt Q15139); assay: Kinase screen; assay type: biochemical
From the text: as §1, §2

[32] = target: PRAK (Homo sapiens, UniProt Q8IW41); assay: Kinase screen; assay type: biochemical
From the text: as §1, §2

[33] = target: RSK1 (Homo sapiens, UniProt Q15418); assay: Kinase screen; assay type: biochemical
From the text: as §1, §2

[34] = target: SmMLCK (Homo sapiens, UniProt Q15746); assay: Kinase screen; assay type: biochemical
From the text: as §1, §2

[35] = target: Src (Homo sapiens, UniProt P12931); assay: Kinase screen; assay type: biochemical
From the text: as §1, §2

[36] = target: TIE2 (Homo sapiens, UniProt Q02763); assay: Kinase screen; assay type: biochemical
Sequence of TIE2 (Q02763 23-1124): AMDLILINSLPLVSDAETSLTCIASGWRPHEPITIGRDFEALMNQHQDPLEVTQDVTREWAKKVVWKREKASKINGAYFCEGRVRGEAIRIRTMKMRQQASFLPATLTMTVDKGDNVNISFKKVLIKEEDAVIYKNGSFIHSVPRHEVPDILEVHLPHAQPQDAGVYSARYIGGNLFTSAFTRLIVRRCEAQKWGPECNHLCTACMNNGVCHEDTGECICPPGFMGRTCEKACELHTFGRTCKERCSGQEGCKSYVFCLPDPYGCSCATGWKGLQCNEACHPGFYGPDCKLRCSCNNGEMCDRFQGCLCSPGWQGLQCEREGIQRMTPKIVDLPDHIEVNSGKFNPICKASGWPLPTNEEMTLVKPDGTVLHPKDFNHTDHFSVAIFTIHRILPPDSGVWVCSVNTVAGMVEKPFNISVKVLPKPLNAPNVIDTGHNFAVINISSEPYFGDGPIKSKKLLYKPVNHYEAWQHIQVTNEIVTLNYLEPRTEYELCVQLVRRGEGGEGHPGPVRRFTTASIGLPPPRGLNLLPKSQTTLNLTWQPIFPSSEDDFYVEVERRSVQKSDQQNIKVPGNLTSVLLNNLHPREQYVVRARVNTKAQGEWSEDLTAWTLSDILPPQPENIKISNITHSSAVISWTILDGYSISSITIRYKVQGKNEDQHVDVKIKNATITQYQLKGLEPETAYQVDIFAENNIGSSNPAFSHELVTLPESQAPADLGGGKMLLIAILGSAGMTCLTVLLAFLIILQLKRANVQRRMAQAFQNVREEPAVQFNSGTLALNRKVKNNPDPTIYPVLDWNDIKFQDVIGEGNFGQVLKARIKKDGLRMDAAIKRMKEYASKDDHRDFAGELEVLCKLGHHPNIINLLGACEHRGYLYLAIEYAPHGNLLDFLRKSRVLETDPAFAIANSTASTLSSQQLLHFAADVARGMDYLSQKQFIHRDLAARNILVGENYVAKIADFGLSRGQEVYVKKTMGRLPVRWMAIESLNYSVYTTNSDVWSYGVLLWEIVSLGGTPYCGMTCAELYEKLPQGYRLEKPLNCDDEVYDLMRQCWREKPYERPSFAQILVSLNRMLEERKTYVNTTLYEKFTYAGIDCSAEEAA
From the text: as §1, §2

[37] = target: ULK2 (Homo sapiens, UniProt Q8IYT8); assay: Kinase screen; assay type: biochemical
From the text: as §1, §2

[38] = target: VEG-FR (Homo sapiens, UniProt P17948); assay: Kinase screen; assay type: biochemical
Sequence of VEG-FR (P17948 27-1338): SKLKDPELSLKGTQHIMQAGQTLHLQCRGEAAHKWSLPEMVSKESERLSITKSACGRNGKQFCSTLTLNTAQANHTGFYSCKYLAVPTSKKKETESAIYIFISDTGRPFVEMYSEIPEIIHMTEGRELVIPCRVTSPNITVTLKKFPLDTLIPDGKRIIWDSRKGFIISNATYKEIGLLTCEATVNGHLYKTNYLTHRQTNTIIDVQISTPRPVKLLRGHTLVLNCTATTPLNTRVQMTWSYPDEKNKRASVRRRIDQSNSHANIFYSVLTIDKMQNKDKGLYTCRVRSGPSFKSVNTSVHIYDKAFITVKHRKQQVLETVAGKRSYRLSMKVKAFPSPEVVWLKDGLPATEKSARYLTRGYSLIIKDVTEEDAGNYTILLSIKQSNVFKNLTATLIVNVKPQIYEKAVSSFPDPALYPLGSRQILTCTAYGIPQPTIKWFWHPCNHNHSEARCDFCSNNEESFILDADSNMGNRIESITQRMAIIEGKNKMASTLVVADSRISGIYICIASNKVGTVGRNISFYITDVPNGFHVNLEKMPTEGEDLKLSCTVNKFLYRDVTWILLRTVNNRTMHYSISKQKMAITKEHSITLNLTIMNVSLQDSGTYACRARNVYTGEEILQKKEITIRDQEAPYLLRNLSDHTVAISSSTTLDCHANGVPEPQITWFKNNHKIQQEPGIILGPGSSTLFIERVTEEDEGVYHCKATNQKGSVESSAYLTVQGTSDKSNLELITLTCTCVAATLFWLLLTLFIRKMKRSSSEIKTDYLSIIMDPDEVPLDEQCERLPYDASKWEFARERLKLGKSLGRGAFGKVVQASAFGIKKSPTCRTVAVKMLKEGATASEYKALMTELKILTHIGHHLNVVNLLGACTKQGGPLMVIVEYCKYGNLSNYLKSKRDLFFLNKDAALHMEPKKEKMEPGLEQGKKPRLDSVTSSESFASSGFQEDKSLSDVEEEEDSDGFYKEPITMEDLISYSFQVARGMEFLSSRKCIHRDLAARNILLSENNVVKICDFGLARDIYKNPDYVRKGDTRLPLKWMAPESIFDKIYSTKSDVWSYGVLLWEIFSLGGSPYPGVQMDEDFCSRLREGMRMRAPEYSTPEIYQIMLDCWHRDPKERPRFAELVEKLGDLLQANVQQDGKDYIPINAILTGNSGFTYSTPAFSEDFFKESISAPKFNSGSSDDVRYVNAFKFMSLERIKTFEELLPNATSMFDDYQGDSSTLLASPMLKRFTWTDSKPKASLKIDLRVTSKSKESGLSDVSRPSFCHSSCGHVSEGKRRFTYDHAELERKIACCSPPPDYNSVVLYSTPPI
From the text: as §1, §2

[39] = target: WNK1 (Homo sapiens, UniProt Q9H4A3); assay: Kinase screen; assay type: biochemical
From the text: as §1, §2

[40] = target: p38b MAPK (Homo sapiens, UniProt Q15759); assay: Kinase screen; assay type: biochemical
From the text: as §1, §2

[41] = target: CK1δ (Homo sapiens, UniProt P48730); assay: Kinase screen; assay type: biochemical
[42] = test system: PINK; details: 1 μM

With `CCN(CC)Cc1ccc(OC)c(-c2cc3c(-c4ccc(C(=O)O)c(C(C)C)c4)ccnc3[nH]2)c1` [analogue 1, 4-(2-(5-((Diethylamino)methyl)-2-methoxyphenyl)-1H-pyrrolo[2,3-b]pyridin-4-yl)-2-isopropylbenzoic Acid] the “clint (in vitro intrinsic clearance)” value [1] was 1.12 mL/min/g liver, the solubility [2] was 8 µg/mL (≈ 17 µM) and the “susceptibility of clinical isolates (PRR)” value [3] was “total susceptibility”. The activity at 1 µM [4] was 59%, the activity at 1 µM [5] was 91% and the activity at 1 µM [6] was 90%. It also gave an activity at 1 µM [7] of 74%, an activity at 1 µM [8] of 100% and an activity at 1 µM [9] of 100%. The activity at 1 µM [10] was 108%, the activity at 1 µM [11] was 82% and the activity at 1 µM [12] was 100%. The activity at 1 µM [13] was 54%, the activity at 1 µM [14] was 144% and the activity at 1 µM [15] was 52%. The activity at 1 µM [16] was 62%, the activity at 1 µM [17] was 102% and the activity at 1 µM [18] was 34%. It also gave an activity at 1 µM [19] of 59%, an activity at 1 µM [20] of 44% and an activity at 1 µM [21] of 17%. For the same molecule, the activity at 1 µM [22] was 100%, the activity at 1 µM [23] was 29% and the activity at 1 µM [24] was 68%. It also gave an activity at 1 µM [25] of 87%, an activity at 1 µM [26] of 96% and an activity at 1 µM [27] of 18%. It also gave an activity at 1 µM [28] of 107%, an activity at 1 µM [29] of 93% and an activity at 1 µM [30] of 80%. For the same molecule, the activity at 1 µM [31] was 85%, the activity at 1 µM [32] was 88% and the activity at 1 µM [33] was 106%. The activity at 1 µM [34] was 80%, the activity at 1 µM [35] was 42% and the activity at 1 µM [36] was 120%. The activity at 1 µM [37] was 96%, the activity at 1 µM [38] was 80% and the activity at 1 µM [39] was 105%. The activity at 1 µM [40] was 112%, the activity at 1 µM [41] was 91% and the “% Activity” value [42] was 106%.
